Laboratory results from patent publication US9546157B2, “Asymmetric piperidinyl-substituted ureas as medicines” (Helsinn Healthcare SA, priority 2014, dated 2017).
“Also recorded” adds a separate entry of the source.

Columns and labels:
[1] = tested on: female Sprague-Dawley rats; experiment: Binge eating model in non-estrous female rats (food restriction + stress, HPF intake); type: in vivo, rat; conditions: for HPF intake (binge eating) in R+S rats: 60 mg/kg by gavage 1 h before access to HPF
Procedure: In this Example, the therapeutic potential of compounds were tested for their ability to inhibit binge eating. The animal model used was developed to explore the combination of food restriction and stress. […] Considering the reliability and the robustness of this model, it was adopted to test the inventive compounds.
A total of N=117, 52-day-old female Sprague-Dawley rats (175-200 g) were used. Rats were acclimated in individual cages with metallic walls; the floor and the front wall made of metallic grid. The dimensions of the cage floor being 30 cm×30 cm; the cage is 30 cm high. A front door (30 cm×20 cm) made of metallic grid was positioned in the anterior wall of the cage to gain access to the inside of the cage; the remaining part of the front wall was equipped with a drinking burette.
Rats were kept in a room at constant temperature (20-22° C.) and humidity (45-55%) under a 12-h light/dark cycle (lights on at 08:00 am) with ad lib chow and water. All procedures were conducted in adherence to the European Community Directive for Care and Use of Laboratory Animals.
Rats were offered food pellets, 4RF18, Mucedola, Settimo Milanese, Italy (2.6 kcal/g). The Highly Palatable Food (HPF) was prepared by mixing:
Rats were exposed to 3 consecutive 8-day cycles followed by the final test on day 25:
a) the control group (NR+NS) had chow ad libitum for 4 days, on days 5-6 it received chow+HPF for 2 h; on days 7-8 it had chow ad libitum; on day 25 it was not exposed to stress;
b) the second group (R+S) had chow restricted to 66% of the normal intake for 4 days, was offered chow and HPF (2 h) on days 5-6 and only chow on days 7-8; on day 25 it […].
Body weights and food intake were recorded daily. Food intake is expressed as mean kilocalories per kilogram ingested±SEM.
Therefore, immediately after the test on day 25, vaginal smears were collected and analyzed under microscope to assess the ovarian phase, and data from rats in the estrous phase were not included in the statistical analysis. Vaginal smears were analyzed by an experienced experimenter blind to treatment conditions.
For 15 min, the container (China coffee cup) containing HPF is placed outside the cage; the container handle is hooked to the top wire wall of the cage in the hollow part where food pellets are usually offered. In these conditions, the animal is able to see the cup in which it received HPF on days 5, 6, 13, and 14 of the first two cycles, is able to see in part the HPF itself, and is able to smell its odour. In this 15-min period, the rat engages in repeated movements of the forepaws, head, and trunk aimed at obtaining the HPF, but it is not able to reach it. Rats undergo the stressful procedure between 10.00 and 12.00 am. After 15 min, the cup is placed inside the cage of the rats in the stress group (R+S), so that the HPF became accessible to the rat.
100 mg of each compound (H0816, H0860, H0847 and H0900) was accurately weighed and suspended in 13.33 ml of 0.5% carboxymethyl cellulose sodium salt (CMC, Sigma-Aldrich Cat. C4888, lot 120M0216V) solution. The lower dose solution was prepared by dilution of 30 mg/ml suspension with 0.5% CMC solution. Suspensions were prepared freshly on test day. Vehicle was composed by a solution of 0.5% carboxymethyl cellulose sodium salt and was prepared by dissolving 1 g of CMC in 200 ml of distilled water. 180 mg of Topiramate was accurately weighed and suspended in 12 ml of 0.5% CMC solution. Compounds (vehicle and active principles) were administered by gavage in a volume of 4 ml/kg of body weight one hour before access to HPF.
All data are expressed as the mean±s.e.m. and each value reflects the mean number of animals per group as described in the legends. For data evaluation, the analysis of variance (ANOVA) was used followed by post-hoc (Bonferroni's) test when appropriate. Statistical significance was set at P<0.05. The Software used for the Graphs was Origin 7.0. […]

[2] = Metabolic Stability (M = Mouse); type: in vitro ADME
[3] = Metabolic Stability (H = Human); type: in vitro ADME
GHSR1a [4] = target: T1, GHSR1a (Homo sapiens, UniProt Q92847); experiment: Calcium FLIPR assay, GHSR-1a antagonism (reduction of ghrelin response); type: cell-based; conditions: HEK293/GHSR1a cells, ghrelin 10 nM
T1 construct: expressed in transfected cells; host or cells: HEK293
T1 sequence (Q92847 whole entry): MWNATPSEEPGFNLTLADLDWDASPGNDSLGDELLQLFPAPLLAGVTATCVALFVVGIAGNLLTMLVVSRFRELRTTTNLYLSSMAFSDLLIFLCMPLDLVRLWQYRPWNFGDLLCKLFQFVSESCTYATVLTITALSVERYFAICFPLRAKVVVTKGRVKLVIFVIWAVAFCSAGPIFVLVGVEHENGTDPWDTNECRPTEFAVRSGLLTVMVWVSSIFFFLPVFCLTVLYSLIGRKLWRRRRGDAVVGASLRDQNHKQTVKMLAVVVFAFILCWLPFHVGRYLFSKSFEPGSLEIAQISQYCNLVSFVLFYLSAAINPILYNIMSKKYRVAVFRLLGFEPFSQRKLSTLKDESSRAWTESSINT
How it was run: (§1)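 Cells stably carrying human GHSR1a were plated a day ahead, dye-loaded, then given test compound. Agonist activity was the calcium rise over 2 minutes after compound addition at t=20 sec; antagonist activity was the reduction of the response to 10 nM ghrelin added together with compound.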

C57BL/6J mice = experiment: Food intake test in mouse (GHSR1a antagonists); type: in vivo
How it was run: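 Male C57BL/6J mice (18-22 g) were fasted overnight (16 h before dosing), then randomized by body weight to vehicle or test agent (n=6 each). Cumulative food intake was measured at 1, 2, 4, 8 and 24 hrs post-dose as premeasured food minus uneaten food.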

GHSR1a [5] = target: T1, GHSR1a; experiment: Calcium FLIPR assay, GHSR-1a agonism; type: cell-based; design: Emax: unit not given here; conditions: HEK293/GHSR1a cells
How it was run: as §1

[6] = first test, acute administration (compounds 3 and 30 mg/kg, Topiramate 60 mg/kg)
[7] = second test, H0816 3, 10 and 30 mg/kg, Topiramate 60 mg/kg
[8] = Mus musculus, ip, 1 h, i.p. 10 mg/kg

SMILES	Metabolic Stability M [2]	Metabolic Stability H [3]	IC50 (GHSR1a [4]) [nM]	EC50 (GHSR1a [5]) [nM]	Mouse Food Intake, result in words (C57BL/6J mice; PO, dose not given)	inhibition in vivo at 10 mg/kg (C57BL/6J mice; [8]) [%]	other results
CC1(C)O[C@@H]2[C@@H](CO[C@@]3(COS(N)(=O)=O)OC(C)(C)O[C@@H]23)O1 [Topiramate, reference compound]							HPF intake (binge eating) in R+S rats ([1]; first test, vs R+S vehicle, 60 mg/kg): confirmed its inhibitory effect; also recorded: statistically significant at all time points; also recorded: completely abolished BE episode; 2-h chow food intake during binge eating test [1, 6]: did not modify 2-h chow intake; 24-h chow food intake after binge eating test [1, 6]: did not modify 24-h chow intake; HPF intake (binge eating) in R+S rats ([1]; second test): statistically significant at all time points; 2-h chow intake [1, 7]: did not modify; 24-h chow intake [1, 7]: did not modify
CC(NC(=O)N(C)C1CCN(C)CC1)c1ccc(-c2cccnc2)c(Cl)c1Cl (centres unmarked) [Compound H0496, 3-(1-(2,3-dichloro-4-(pyridin-3-yl)phenyl)ethyl)-1-methyl-1-(1-methylpiperidin-4-yl)urea]	High	Medium	10	> 30000			Mouse Food Intake, result in words (C57BL/6J mice; i.p. 10 mg/kg): NSE (10 mg/kg)
CC(NC(=O)N(C)C1CCN(C)CC1)c1ccc(-c2cncc(F)c2)c(Cl)c1Cl (centres unmarked) [Compound H0614, 3-(1-(2,3-dichloro-4-(5-fluoropyridin-3-yl)phenyl)ethyl)-1-methyl-1-(1-methylpiperidin-4-yl)urea]	High H High M	High H High M	12	> 30000	No IP done, PO: NSE		
CC(NC(=O)N(C)C1CCN(C)CC1)c1ccc(-c2cncc(C#N)c2)c(Cl)c1Cl (centres unmarked) [Compound H0613, 3-(1-(2,3-dichloro-4-(5-cyanopyridin-3-yl)phenyl)ethyl)-1-methyl-1-(1-methylpiperidin-4-yl)urea]	High H High M	High H High M	20	> 30000	inhibition at 1 h		Mouse Food Intake, result in words (C57BL/6J mice; IP + ANAM 30 mpk PO, at 1 h): inhibition; Mouse Food Intake, result in words (C57BL/6J mice; i.p. 10 mg/kg): NSE
CCC(NC(=O)N(C)C1CCN(C)CC1)c1ccc(-c2cnccn2)c(Cl)c1Cl (centres unmarked) [Compound H0829, 3-(1-(2,3-dichloro-4-(pyrazin-2-yl)phenyl)propyl)-1-methyl-1-(1-methylpiperidin-4-yl)urea]	High H High M	High H High M	3	> 30000			Mouse Food Intake, result in words (C57BL/6J mice; PO 10 mg/kg + ANA (ANAM) 30 mg/kg mice): PO 10 mg/kg + ANA 30 mg/kg mice: NSE
CC(NC(=O)N(C)C1CCN(C)CC1)c1ccc(-c2cncnc2)c(Cl)c1Cl (centres unmarked) [Compound H0516, 3-(1-(2,3-dichloro-4-(pyrimidin-5-yl)phenyl)ethyl)-1-methyl-1-(1-methylpiperidin-4-yl)urea]	High H High M	High H High M	41	> 30000	no effect		inhibition in vivo at 30 mg/kg (C57BL/6J mice; Mus musculus, ip, 1 h, i.p. 30 mg/kg): 88%
CC(NC(=O)N(C)C1CCN(C)CC1)c1ccc(-c2cn[nH]c2)c(Cl)c1Cl (centres unmarked) [Compound H0499, 3-(1-(2,3-dichloro-4-(1H-pyrazol-4-yl)phenyl)ethyl)-1-methyl-1-(1-methylpiperidin-4-yl)urea]	Medium H Medium M	Medium H Medium M	12	> 30000			Mouse Food Intake, result in words (C57BL/6J mice; i.p. 30 mg/kg): NSE (30 mg/kg)
COc1cncc(-c2ccc(C(C)NC(=O)N(C)C3CCN(C)CC3)c(Cl)c2Cl)c1 (centres unmarked) [Compound H0607, 3-(1-(2,3-dichloro-4-(5-methoxypyridin-3-yl)phenyl)ethyl)-1-methyl-1-(1-methylpiperidin-4-yl)urea]	Medium H Medium M	Medium H Medium M	6	31			Mouse Food Intake, result in words (C57BL/6J mice; i.p. 10 mg/kg): NSE (10 mg/kg); Emax (GHSR1a [5]): 3000
C#Cc1ccc(C(C)NC(=O)N(C)C2CCN(C)CC2)c(Cl)c1Cl (single isomer, unassigned) [Compound H0678, 3-(1-(2,3-dichloro-4-ethynylphenyl)ethyl)-1-methyl-1-(1-methylpiperidin-4-yl)urea]	Medium H Medium M	Medium H Medium M	55	> 30000	no effect	78	
CC(NC(=O)N(C)C1CCN(C)CC1)c1ccc(C#Cc2cccs2)c(Cl)c1Cl (centres unmarked) [Compound H0737, 3-(1-(2,3-dichloro-4-(thiophen-2-ylethynyl)phenyl)ethyl)-1-methyl-1-(1-methylpiperidin-4-yl)urea]	High H High M	High H High M	13	> 30000	NSE	75	
CC(NC(=O)N(C)C1CCN(C)CC1)c1ccc(/C=C/c2cccs2)c(Cl)c1Cl (centres unmarked) [Compound H0767, (E)-3-(1-(2,3-dichloro-4-(2-(thiophen-2-yl)vinyl)phenyl)ethyl)-1-methyl-1-(1-methylpiperidin-4-yl)urea]	High H High M	High H High M	37	> 30000	NSE	88	
CC(NC(=O)N(C)C1CCN(C)CC1)c1ccc(Br)c2ccccc12 (centres unmarked) [Compound H0573, 3-(1-(4-bromonaphthalen-1-yl)ethyl)-1-methyl-1-(1-methylpiperidin-4-yl)urea]	Medium	High	36	> 30000			Mouse Food Intake, result in words (C57BL/6J mice; PO 30 mg/kg): PO: NSE (30 mg/kg)
CC(NC(=O)N(O)C1CCN(C)CC1)c1ccc(-c2cncc(C#N)c2)c(Cl)c1Cl (centres unmarked) [Compound H0667, 3-(1-(2,3-dichloro-4-(5-cyanopyridin-3-yl)phenyl)ethyl)-1-hydroxy-1-(1-methylpiperidin-4-yl)urea]	High H High M	High H High M	< 1	3		76	Emax (GHSR1a [5]): 4887
